US10729820B2, “Methods and processes for application of drug delivery polymeric coatings” (Ariste Medical, LLC, priority 2014, dated 2020)
Structures can show the parent of a compound that is named as a salt. Where two headings read alike, the source gives them in different places.

Legend:
[1] = Antibiotics remaining after curing, EXP12-formula coating with Irgacure 2959, HPLC peak integration (Example 13); type: physicochemical; conditions: cured specimen with drug vs specimen 9, Irgacure 2959, UV-C chamber, curing time 10 mins
Description: All procedures are same as Example 12 except the PTPO is replaced by Irgacure 2959. The curing time was set to 10 mins. The UV source was Ariste UV-C chamber. […]

[2] = type: physicochemical; conditions: 0.04 mg/cm^2
Description: Three pieces, each approximate 4 cm^2, of polypropylene (PP) mesh (density d=107 g/m^2) were cut and weighed to make sure that each piece has same weight. The weight was 42.7 mg for each piece as the actual area was, ca, 42.7 mg/(10.7 mg/cm^2)=4 cm^2. Polyethylene glycol dimethacrylate (PEG DM) (60 mg) was weighed and dissolve the in acetone making the concentration as 100 mg/mL. PTPO (4.5 mg) was weighed and dissolve in acetone making the concentration as 10 mg/mL. 5 μL of PTPO solution (containing 50 ug PTPO) in step and 100 μL of PEG DM solution (containing 10 mg of PEG DM formula, described above) were mixed in a 1.5 mL centrifuge tube so that the PTPO to PEG DM weight ratio was 0.5%. Took preweighed 157 μg of minocycline and 157 μg of rifampin, so that the drug loading was about 0.04 mg/cm^2 in this experiment for each drug. The solutions were transferred onto PP mesh using an automatic pipette while the meshes were held by a plastic clamp. Specimen 4 and 5 were subjected to curing while specimen 6 was chosen as a reference. The thiolene formula loading was 2.5 mg/cm^2 in this experiment. […]
Using direct proportions of peak integration of specimen 6, the concentration of minocycline hydrochloride and rifampin in specimen 5 after curing was determined. […] The antibiotics remaining after curing were calculated as: {(Peak integration of specimen 5)/(peak integration of specimen 6)}×100%

[3] = type: physicochemical; conditions: 0.04 mg/cm^2; remark: listed apart in the source
Description: Mesh was cut into three pieces, each approximate 4 cm^2. Each piece was weighed and it was made sure each piece was 50 mg as the actual area was, ca, 50.0 mg/(10.7 mg/cm^2)=4.7 cm^2. Thiolene formula (60 mg) (thiolene formula contains 67.22 wt % Pentaerythritol tetrakis(3-mercaptopropionate), 32.73 wt % […] Isocyanurate, and 0.05 wt % Hydroquinone:tertbutyl cathetol (1:1 mixture by moles), density is, ca, 1.2 g/mL) was dissolved in acetone aiming for the concentration of 100 mg/mL. […] Made three specimens as shown Table 1. The solutions were transferred onto PP mesh using an automatic pipette while the meshes were held by a plastic clamp. […] The thiolene formula loading was set to 2.5 mg/cm^2 in this experiment. […] HPLC runs of each specimen extract from methanol were performed under the conditions below: • Channel A: 35 mM sodium phosphate monobasic, 1 vol % triethylamine, final pH=7.5 with phosphoric acid • Channel B: acetonitrile • Column temperature=30° C. • Column type: 3×150 mm with 3.5 μm phenyl phase packing • Measurement: absorbance at 280 nm • Solvent flow rate: 1 mL/min • Solvent profile: 0-10 minutes 0-50 vol % Channel B; 10-20 minutes 50 vol % Channel B; 20-25 minutes 50-0 vol % Channel B. The concentration of minocycline hydrochloride and rifampin in specimen 2 after curing were determined using direct proportions of peak area integration of specimen 3. • a. […]

[4] = type: physicochemical; conditions: 0.4 mg/cm^2
Description: Three 35.3 mg, 3.24 cm^2 pieces of polypropylene mesh were cut. About 80 mg thiolene formula (67.22 wt % pentaerythritol tetrakis(3-mercaptopropionate), 32.73 wt % triallyl isocyanurate, and 0.05 wt % hydroquinone:tertbutyl cathetol (1:1 mixture by moles), density is, ca, 1.2 g/mL) was weighed and dissolve the formula in acetone aiming for the concentration of 200 mg/mL. Weighed about 2 mg PTPO and dissolved it in acetone aiming for the concentration of 10 mg/mL. Took 8.1 μL of solution of PTPO (which contained 81 ug PTPO) and 81 μL of the thiolene solution (which contained 16.2 mg of thiolene formula) and mixed them in a 1.5 mL centrifuge tube, so that the PTPO to monomer weight ratio was 0.005. The thiolene formula to PP mesh ratio was 5 mg/cm^2. Drugs were dissolved in methanol and drug/methanol solutions were mixed with monomer/acetone solutions such that solvent ratios were at 2:1 acetone:methanol for drug containing specimens (Table 8). Those specimens not containing drug used pure acetone solvents in the coating formulation. […]
The concentration of minocycline hydrochloride and rifampin in specimen 8 was determined using direct proportions of peak area integrations and taking of […] as 100% drug control. […] The antibiotics remaining after curing was calculated as: {(Peak integration of specimen 8)/(peak integration of specimen 9)}×100%

[5] = Antibiotics remaining after curing, pentaerythritol tetrakis(3-mercaptopropionate)/PEG DM thiolene coating (EXP12-formula) with PTPO, HPLC peak integration (Example 12); type: physicochemical; conditions: specimen 11 vs specimen 9, 0.4 mg/cm^2 each drug, curing time 10 mins
Description: All procedures were same as Example 11 except that the thiolene formula was replaced by the following formula (10 g of pentaerythritol tetrakis(3-mercaptopropionate) (from Sigma Aldrich, P #381462, lot #80896TMV) and 21.4 g of polyethylene glycol dimethacrylate (from Sigma Aldrich, P #409510, lot # MKBP0253V) (EXP12-formula). The curing time was set to 10 mins. The two specimens used in curing are shown in the following Table 11. Specimen 9 as discussed in Example 11 was used as a standard.
The top is specimen 9 and the bottom is the cured specimen 11 with drug loading.

[6] = Drug survival during polymerization and post cure loading, BPDM/NTG-GMA methacrylate coating on DualMesh ePTFE, HPLC of methanol extracts (Example 4); type: physicochemical; conditions: drugs in casting solution, theoretical 400 μg/cm^2 each drug, methanol extract
Source text: An acetone:ethanol:BPDM solution:NTG-GMA solution in 1:1:1:1 volume ratio was used to coat DualMesh Biomaterial with drugs both present during the polymerization process and loaded into the polymer network after curing had been performed. Circular 0.785 cm^2 samples of DualMesh were coated. In the version were drugs were included in the casting solution, both minocycline hydrochloride and rifampin were incorporated at levels such if no degradation were to have occurred each drug would have been loaded at a bulk surface area density of 400 μg/cm^2. The post-cure loaded version was created by coating the DualMesh with the same amount of polymer coating, and then submerging the specimen in a 5 mL methanol bath containing each drug at 10 mg/mL overnight (˜18 hours) at 4° C. After soaking in the methanol/drug solution, specimens were retrieved from the loading solution and allowed to air dry. Once dried they were passed through two rinse solutions using the following technique: forceps were used to hold specimens while contacting a minimal amount of the surface, vigorously shake the specimen in a 15 mL methanol rinse for 15 seconds, move specimen to a second 15 mL methanol bath and vigorously shake for an additional 15 seconds, and finally allow to air dry. Shaking was performed by moving the forceps back while holding the specimen submerged in the rinse. […]

[7] = Drug destruction on curing, thiolene coating with PTPO on polypropylene mesh, HPLC of methanol extracts (Example 6); type: physicochemical; conditions: 0.1 wt % PTPO, halogen dental curing lamp, six coats, theoretical 0.2 mg/cm^2 each drug
Description: 1:1:8 weight ratio of monomer (67.22 wt % pentaerythritol tetrakis(3-mercaptopropionate), 32.73 wt % triallyl isocyanurate, and 0.05 wt % hydroquinone:tertbutyl cathetol (1:1 mixture by mole)):methanol:acetone containing minocycline hydrocholoride and rifampin at 50 mg/mL of each drug blend was made. PTPO (BASF P/N 56415733) was added at 0.1 wt %. Polymerization was induced using a halogen dental curing lamp through curing at a distance 2″ from the light guide for 10 seconds on each side of the mesh. Six coats were applied to result in a theoretical loading of 0.2 mg/cm^2 of each drug. HPLC analysis of methanol extracts indicated 72% and 69% destruction of minocycline hydrochloride and rifampin, respectively. High degradation rates may be the result of the phosphine oxide initiator, which could destroy these drugs upon activation.

SMILES | Remaining after curing [1] | Remaining after curing [2] | Remaining after curing [3] | Remaining after curing [4] | Remaining after curing [5] | average drug survival during the polymerization process [6] | destruction of drug [7]
CN(C)c1ccc(O)c2c1C[C@H]1C[C@H]3[C@H](N(C)C)C(O)=C(C(N)=O)C(=O)[C@@]3(O)C(O)=C1C2=O [Minocycline, minocycline hydrochloride] | 85% | 76% | 88% | 64% | 54% | – | –
CO[C@H]1/C=C/O[C@@]2(C)Oc3c(C)c(O)c4c(O)c(c(/C=N/N5CCN(C)CC5)c(O)c4c3C2=O)NC(=O)/C(C)=C\C=C\[C@H](C)[C@H](O)[C@@H](C)[C@@H](O)[C@@H](C)[C@H](OC(C)=O)[C@@H]1C [Rifampin, rifampin] | 85% | 97% | 87% | 61% | 58% | 79% | 69%
